Assay results: patent publication US20240285730A1, “COMPOSITIONS AND METHODS FOR THE TREATMENT OF GRAFT VERSUS HOST DISEASE” (VectivBio AG, priority 2021, published 2024)
Entries after “also recorded” stand apart in the source; their conditions may differ. Square brackets hold non-standard residues; d marks the D form. Peptide text beside a SMILES is read from it. ξ: configuration not given here. Ile(3ξ) = CCC(C)[C@H](N)C(=O)O; Thr(3ξ) = CC(O)[C@H](N)C(=O)O; Nle = CCCC[C@H](N)C(=O)O

Legend:
[1] = system: blood cell count; assay: Cytarabine-induced immunosuppression (blood cell counts); format: in vivo, Balb/c mice; details: 4 weeks after the end of treatment
Protocol: In a second experiment, apraglutide's effect on the ability of cytarabine to induce immunosuppression was assessed. The experiment included three groups of Balb/c mice: (A) vehicle; (B) cytarabine on Days 5-9; (C) cytarabine on Days 5-9, concomitant apraglutide on Days 5-18. RBC, platelets, WBC, NEU and LYMPH were assessed. A cohort was allowed to survive for 4 weeks to assess the effect of apraglutide on immunosuppression recovery (FIG. 12).

[2] = system: WBC, NEU and LYMPH; assay: Melphalan-induced immunosuppression (WBC, NEU, LYMPH); format: in vivo, Balb/c mice
Protocol: In a third experiment, the effect of apraglutide on melphalan-induced immunosuppression was assessed (FIG. 13). Three groups of Balb/c mice were included: (A) vehicle; (B) melphalan on Day 9; (C) melphalan on Day 9, apraglutide pre-treatment on Days 1, 3, 5, 7 and continued as co-administration on Days 9, 11, and 13. WBC, NEU and LYMPH were assessed.

[3] = system: human peripheral blood mononuclear cell (hPBMC) engraftment; assay: Engraftment of human PBMC in total-body-irradiated NOG mice; format: in vivo, immunodeficient (NOG) mice
Protocol: Engraftment rate was determined through CD45 expression in blood, bone marrow and spleen.

[4] = system: cytarabine-induced toxicity; assay: Apraglutide dose-response study with cytarabine chemotherapy; format: in vivo, BALB/cJ female mice; details: for polymorphonuclear (PMN) cell count: cytarabine alone or combined with hGLP-2 or apraglutide
Protocol: The apraglutide dose-dependent impact on the immunosuppressive effect of cytarabine was evaluated. The effect of cytarabine treatment on polymorphonuclear (PMN) cell count was determined (FIG. 20). […] In a separate study during which animals treated with cytarabine alone or in combination with apraglutide initiated before cytarabine (Days-4 to +12) were allowed to survive for 4 additional weeks.

[5] = system: acute GVHD-induced intestinal damage; assay: TBI-induced intestinal damage with allogeneic transplantation (Example 2, second experiment)
Protocol: In a second experiment, TBI-induced intestinal damaged BALB/cJ mice received allogeneic transplantation and were treated with apraglutide (3.3 mg/kg) or vehicle on Days −9, −7, −5, −3-1, +1, +3, +5, +7. Intestinal damage indicative of GvHD (histological changes, length, hemorrhage, inflammation), body weight, and survival were assessed.

[6] = system: chemotherapy-induced gastrointestinal (GI) damage; assay: Chemotherapy-induced (cytarabine or melphalan) intestinal damage in mice; format: in vivo, Balb/c mice
Protocol: In a first experiment, 4 groups of Balb/c mice: (A) vehicle only; (B) cytarabine on Days 5-9, no apraglutide given; (C) cytarabine on Days 5-9; concomitant apraglutide on Days 5-18; (D) cytarabine on Days 5-9; pre-treatment apraglutide on Days 1, 3, and continued as concomitant treatment on Days 5, 8, 11, 14, and 17. Treatment groups were dosed with 30 mg/kg cytarabine and/or apraglutide 3.3 mg/kg.
In a second experiment, 3 treatment groups of Balb/c mice: (A) vehicle only; (B) melphalan on Day 9, no apraglutide; (C) melphalan on Day 9; pre-treatment apraglutide on Days 1, 3, 5, 7 and continued as concomitant treatment on Days 9, 11, and 13.
In both models, mice that received vehicle without any treatment served as controls. Intestinal tissue histology, body weight, survival, and plasma citrulline, a marker of total mucosal mass and intestinal growth, was assessed in both models.

[7] = system: fecal microbiota (Bacteroidetes, Firmicutes); assay: Fecal microbiota composition during cytarabine chemotherapy (16S taxonomical meta-sequencing); format: in vivo, Balb/c mice; details: for changes in the composition of bacterial species (Bacteroidetes, Firmicutes): Days 0 to 18
[8] = system: acute gastrointestinal GvHD mouse model; assay: Acute GvHD mouse model, second experiment (7.0 Gy irradiation + allogeneic transplant)
Protocol: In a second experiment BALB/cJ male mice were separated into three groups, Group A, Group B and Group C. Groups A and B consisted of 10 mice and Group C consisted of 5 mice.
Mice in Group A received subcutaneous injections of apraglutide in an amount of 3 mg/kg/mouse (administered in 300 μl of vehicle), every second day from Day −9 to Day +7 (Days: −9, −7, −5, −3-1, +1, +3, +5, +7).
Mice in Group B received subcutaneous injections of 300 μl of vehicle control every second day starting from Day −9 to Day +7 (Days: −9, −7, −5, −3−1, +1, +3, +5, +7).
Mice in Group C received subcutaneous injections of 300 μl of vehicle control every second day starting from Day −9 to Day +7 (Days: −9, −7, −5, −3−1, +1, +3, +5, +7).
On Day −1 of the experiment, all mice in Groups A and B were irradiated with 7.0 Gy using an linac x-ray source. Group C was not irradiated but were injected with the vehicle only.
On Day 0 of the experiment, bone marrow and T cells from C57BL/6J mice were collected, prepared and transplanted into the mice of Group A and Group B. Each mouse in Group A and Group B was intravenously injected with 10 million bone marrows cells extracted from the femurs of the C57BL/6J mice and 2.5 million spleen cells extracted from the C57BL/6J mice.
Morbidity, mortality, body weight, clinical signs (diarrhea, appearance and behavior), length of intestinal segments, and histopathology of the intestine, skin, spleen and liver were monitored in the mice of Group A, Group B and Group C. All mice were sacrificed at Day +14 at the latest.

[9] = system: acute gastrointestinal GvHD mouse model; assay: Acute GvHD mouse model, first experiment (8.5 Gy irradiation + allogeneic bone marrow/spleen cell transplant); format: in vivo, BALB/cJ male mice
Protocol: Mouse #3 (Group A), #13 (Group B) and #20 (Group B) were administered the cells by subcutaneous injection rather than intravenously. Mouse #5 (Group B) and #10 (Group B) received half the cells by intravenous injection and half by subcutaneous injection.
Various histological parameters of the jejunum were also measured, including single cell necrosis levels, necrosis of all crypts, shortening of villi, cryptal hyperplasia (regenerative), cell infiltrate, and cryptal abscess. These histological parameters were graded on a standard histological grading system (1 to 3). […] These indicate that the administration of apraglutide has a protective effective against jejunal mucosal damages induced by irradiation and GvHD.

[10] = system: human leukemia cells; details: vs vehicle
Protocol: In a first experiment, cytarabine's anti-tumor effects were assessed in leukemic NOD/SCID mice (FIG. 11a). Apraglutide or vehicle was administered on Days −4 to 4. Cytarabine or vehicle was administered on Days 0-4. Bone marrow and spleen samples were collected on Day 7 and percentage of hCD45+ cells determined.

[11] = apraglutide 3.3 mg/kg vs vehicle
[12] = apraglutide 3 mg/kg s.c., histological grading 1 to 3, vs vehicle

Compound: CCCC[C@H](NC(=O)[C@H](CCC(=O)O)NC(=O)[C@H](CC(=O)O)NC(=O)[C@H](CO)NC(=O)[C@H](Cc1ccccc1)NC(=O)[C@H](CO)NC(=O)CNC(=O)[C@H](CC(=O)O)NC(=O)CNC(=O)[C@@H](N)Cc1c[nH]cn1)C(=O)N[C@H](Cc1ccccc1)C(=O)N[C@H](C(=O)N[C@H](C(=O)N[C@@H](CC(C)C)C(=O)N[C@@H](CC(=O)O)C(=O)N[C@@H](CC(C)C)C(=O)N[C@@H](CC(C)C)C(=O)N[C@@H](C)C(=O)N[C@@H](C)C(=O)N[C@@H](CCCNC(=N)N)C(=O)N[C@@H](CC(=O)O)C(=O)N[C@@H](Cc1ccccc1)C(=O)N[C@H](C(=O)N[C@@H](CC(N)=O)C(=O)N[C@@H](Cc1c[nH]c2ccccc12)C(=O)N[C@@H](CC(C)C)C(=O)N[C@H](C(=O)N[C@@H](CCC(N)=O)C(=O)N[C@H](C(=O)N[C@@H](CCCCN)C(=O)N[C@H](C(=O)N[C@H](C(=O)N[C@@H](CC(=O)O)C(N)=O)C(C)O)C(C)CC)C(C)O)C(C)CC)C(C)CC)C(C)CC)C(C)O (stereo partly drawn) [apraglutide] (H-HGDGSFSDE[Nle][dF][Thr(3ξ)][Ile(3ξ)]LDLLAARDF[Ile(3ξ)]NWL[Ile(3ξ)]Q[Thr(3ξ)]K[Ile(3ξ)][Thr(3ξ)]D-NH2)
- recovery of hematological parameters [1]: did not impact
- impact on cytarabine- or melphalan-induced immunosuppression ([2]; combination with apraglutide): no negative impact
- engraftment rate in blood, spleen and bone marrow (CD45 expression) ([3]; apraglutide 3.3 mg/kg Days −6 to 18, TBI 1.44 Gy, hPBMC 3×10^7): not affected
- hCD45+ cells infiltration in the intestinal wall ([3]; apraglutide vs vehicle): no difference
- improvement in animal survival vs cytarabine alone ([4]; all apraglutide-treated groups): statistically significant
- plasma citrulline concentrations ([4]; apraglutide 0.33 mg/kg and 1.1 mg/kg with cytarabine vs cytarabine alone): improvement in citrulline concentrations
- polymorphonuclear (PMN) cell count [4]: not reversed
- initial weight loss ([4]; cytarabine combined with 0.11 mg/kg apraglutide or hGLP-2 (0.60 mg/kg twice daily)): did not decrease initial weight loss
- lymphocyte engraftment ([5]; apraglutide 3.3 mg/kg Days −9 to +7): successfully achieved
- median survival [5, 11]: similar
- post-mortem histological examination, mucosal degenerative/inflammatory changes [5, 11]: less mucosal degenerative/inflammatory changes
- weight loss [5, 11]: similar
- overall survival ([5]; on Day +9, apraglutide 3.3 mg/kg): 40%
- degenerative intestinal changes (villi and crypt atrophy) caused by cytarabine or melphalan ([6]; apraglutide co-administration, 3.3 mg/kg): reduced
- chemotherapy-induced weight loss ([6]; apraglutide with cytarabine or melphalan): attenuated
- overall survival ([6]; vs vehicle-only or chemotherapy-only groups): improved overall survival
- weight of duodenum, ileum and jejunum ([6]; with apraglutide): increased in weight
- changes in the composition of bacterial species (Bacteroidetes, Firmicutes) [7]: the effect was reduced
- mice survived past Day 9 ([8]; 7.0 Gy + allogeneic transplant, apraglutide 3 mg/kg s.c.): 40%
- median survival ([8]; 7.0 Gy + allogeneic transplant, apraglutide 3 mg/kg s.c. Day −9 to +7): 9 days
- body weight of surviving mice beyond Day 9 ([8]; Group A): regained body weight
- length of the small intestine ([8]; Groups A, B and C compared): no differences were observed
- weight loss, Group A vs Group B ([8]; apraglutide 3 mg/kg s.c. vs vehicle, both TBI/BMT): No significant difference
- animal survival (Kaplan-Meier) ([8]; apraglutide initiated before TBI/BMT vs TBI/BMT animals): enhanced survival; also recorded: significant difference relative to TBI/BMT animals
- mice with intestinal pathological score of 0 ([8]; score 0 least severe to 4 most severe, Group A, 10 mice): four out of out of ten
- colon length ([9]; 8.5 Gy + C57BL/6J bone marrow/spleen cells, apraglutide 3 mg/kg s.c. every second day Day −9 to +7, vs vehicle group): increased colon lengths that were nearly the same as the control mice
- mean severity score of the regenerative cryptal hyperplasia (jejunum) [9, 12]: slightly increased
- overall mean severity score of mucosal degenerative/inflammatory changes in the jejunum [9, 12]: slightly decreased

Compound: N[C@@H](Cc1ccc(N(CCCl)CCCl)cc1)C(=O)O [melphalan, Melphalan, reference compound]
- WBC and LYMPH vs vehicle ([2]; melphalan on Day 9, with or without apraglutide): severe decreases

Compound: Nc1ccn([C@@H]2O[C@H](CO)[C@@H](O)[C@@H]2O)c(=O)n1 [Cytarabine only, Cytarabine]
- polymorphonuclear (PMN) cell count [4]: depleted PMN counts
- reduction in human leukemia cells [10]: significantly greater than vehicle
- Bacteroidetes, mean (Table 1b) ([7]; Day 0): 18.3
- Firmicutes, mean (Table 1b) ([7]; Day 0): 78.7
- unclassified phylum, mean (Table 1b) ([7]; Day 0): 1.3
- Bacteroidetes, mean (Table 1b) ([7]; Day 18): 48.7
- Firmicutes, mean (Table 1b) ([7]; Day 18): 49.6
- unclassified phylum, mean (Table 1b) ([7]; Day 18): 1.2
- changes in the composition of bacterial species (Bacteroidetes, Firmicutes) [7]: increasing the Bacteroidetes population and decreasing the proportion of Firmicutes bacteria
